# In patent publication US12662489B2 (Sitryx Therapeutics Limited, priority 2023, dated 2026):
# Experiments:
# [1] = target: T1, MTHFD1 recombinant human enzyme (Homo sapiens, UniProt P11586); test: MTHFD1 inhibition assay (NAD(P)H-Glo luminescence); settings: MTHFD1 IC50, recombinant human enzyme 200 nM, NADP, band
# T1 sequence (P11586 2-291 limits assumed): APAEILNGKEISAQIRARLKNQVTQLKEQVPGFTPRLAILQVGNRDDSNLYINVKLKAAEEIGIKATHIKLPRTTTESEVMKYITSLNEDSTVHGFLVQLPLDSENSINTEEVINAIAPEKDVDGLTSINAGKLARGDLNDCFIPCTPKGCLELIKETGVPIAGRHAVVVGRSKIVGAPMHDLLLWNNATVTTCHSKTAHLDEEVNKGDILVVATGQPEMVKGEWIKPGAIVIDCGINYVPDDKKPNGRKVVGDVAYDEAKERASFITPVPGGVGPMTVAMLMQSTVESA
# [2] = target: T2, MTHFD2 recombinant human enzyme (Homo sapiens, UniProt P13995); test: MTHFD2 inhibition assay (NAD(P)H-Glo luminescence); settings: for MTHFD1/MTHFD2 IC50 ratio: selectivity of MTHFD2 inhibition over MTHFD1, band
# T2 sequence (P13995 36-350): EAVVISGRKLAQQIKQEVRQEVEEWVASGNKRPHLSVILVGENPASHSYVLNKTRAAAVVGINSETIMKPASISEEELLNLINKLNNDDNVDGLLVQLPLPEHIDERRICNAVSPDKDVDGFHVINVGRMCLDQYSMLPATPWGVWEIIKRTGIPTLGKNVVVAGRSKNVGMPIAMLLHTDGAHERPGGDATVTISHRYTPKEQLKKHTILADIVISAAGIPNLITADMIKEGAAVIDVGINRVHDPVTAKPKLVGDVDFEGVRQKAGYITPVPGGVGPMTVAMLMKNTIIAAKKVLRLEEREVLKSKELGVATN
SMILES,IC50 [1],IC50 [2],MTHFD1/MTHFD2 IC50 ratio [2]
"COC[C@H]1CN(c2cc(C)c3c4c(c(=O)oc3c2C)CN(C(=O)c2ccc(C(=O)NS(=O)(=O)C3(C)CC3)c(N3C5CCC3CC5)c2)CC4)CCN1C [Example 48, (R)-2-(7-azabicyclo[2.2.1]heptan-7-yl)-4-(8-(3-(methoxymethyl)-4-methylpiperazin-1-yl)-7,10-dimethyl-5-oxo-1,3,4,5-tetrahydro-2H-chromeno[3,4-c]pyridine-3-carbonyl)-N-((1-methylcyclopropyl)sulfonyl)benzamide]",1 to 10 nM,1 to 10 nM,F (<3)
"COC[C@H]1CN(c2ccc3c4c(c(=O)oc3c2C)CN(C(=O)c2cc(OC3CCC3)c(C(=O)NS(=O)(=O)N3CCCC3)c(C(F)(F)F)c2)CC4)CCN1C [Example 133, (R)-2-cyclobutoxy-4-(8-(3-(methoxymethyl)-4-methylpiperazin-1-yl)-7-methyl-5-oxo-1,3,4,5-tetrahydro-2H-chromeno[3,4-c]pyridine-3-carbonyl)-N-(pyrrolidin-1-ylsulfonyl)-6-(trifluoromethyl)benzamide]",100 to 1000 nM,100 to 1000 nM,G (^ 3 to 9.0)
"[2H]C([2H])([2H])Oc1c(C(=O)NS(=O)(=O)N2C3CCC2CC3)ccc(C(=O)N2CCc3c(c(=O)oc4c(C)c(N5CCN(C)[C@@H](COC)C5)cc(C)c34)C2)c1F [Example 252, (R)-N-((7-azabicyclo[2.2.1]heptan-7-yl)sulfonyl)-3-fluoro-2-(methoxy-d3)-4-(8-(3-(methoxymethyl)-4-methylpiperazin-1-yl)-7,10-dimethyl-5-oxo-1,3,4,5-tetrahydro-2H-chromeno[3,4-c]pyridine-3-carbonyl)benzamide]",100 to 1000 nM,1 to 10 nM,J (>30)
"COC[C@H]1CN(c2cc(C)c3c4c(c(=O)oc3c2C)CN(C(=O)c2ccc(C(=O)NS(=O)(=O)C3(C)CC3)c(N3C5CCC3CC5)c2F)CC4)CCN1C [Example 73, (R)-2-(7-azabicyclo[2.2.1]heptan-7-yl)-3-fluoro-4-(8-(3-(methoxymethyl)-4-methylpiperazin-1-yl)-7,10-dimethyl-5-oxo-1,3,4,5-tetrahydro-2H-chromeno[3,4-c]pyridine-3-carbonyl)-N-((1-methylcyclopropyl)sulfonyl)benzamide]",1 to 10 nM,1 to 10 nM,
"COC[C@H]1CN(c2cc(C)c3c4c(c(=O)oc3c2C)CN(C(=O)c2cc(OC3CCC3)c(C(=O)NS(=O)(=O)N3CCCC3)c(C(F)(F)F)c2)CC4)CCN1C [Example 132, (R)-2-cyclobutoxy-4-(8-(3-(methoxymethyl)-4-methylpiperazin-1-yl)-7,10-dimethyl-5-oxo-1,3,4,5-tetrahydro-2H-chromeno[3,4-c]pyridine-3-carbonyl)-N-(pyrrolidin-1-ylsulfonyl)-6-(trifluoromethyl)benzamide]",100 to 1000 nM,10 to 100 nM,H (>9.0 to 30)
"COC[C@H]1CN(c2ccc3c4c(c(=O)oc3c2Cl)CN(C(=O)c2ccc(C(=O)NS(=O)(=O)N3CCCC3)c(OC3CCC3)c2F)CC4)CCN1C [Example 53, (R)-4-(7-chloro-8-(3-(methoxymethyl)-4-methylpiperazin-1-yl)-5-oxo-1,3,4,5-tetrahydro-2H-chromeno[3,4-c]pyridine-3-carbonyl)-2-cyclobutoxy-3-fluoro-N-(pyrrolidin-1-ylsulfonyl)benzamide]",1 to 10 nM,10 to 100 nM,F (<3)
"COC[C@H]1CN(c2ccc3c4c(c(=O)oc3c2C)CN(C(=O)c2ccc(C(=O)NS(=O)(=O)C3(C)CC3)c(OC3CCCC3)c2F)CC4)CCN1C [Example 9, (R)-2-(cyclopentyloxy)-3-fluoro-4-(8-(3-(methoxymethyl)-4-methylpiperazin-1-yl)-7-methyl-5-oxo-1,3,4,5-tetrahydro-2H-chromeno[3,4-c]pyridine-3-carbonyl)-N-((1-methylcyclopropyl)sulfonyl)benzamide]",10 to 100 nM,10 to 100 nM,F (<3)

# Results, then the molecule that gave them:
IC50 [1],IC50 [2],MTHFD1/MTHFD2 IC50 ratio [2],SMILES
10 to 100 nM,10 to 100 nM,F (<3),"COC[C@H]1CN(c2cc(C)c3c4c(c(=O)oc3c2C)CN(C(=O)c2ccc(C(=O)NS(=O)(=O)N3CCCC3)c(OCC(F)(F)F)c2F)CC4)CCN1C [Example 206, (R)-3-fluoro-4-(8-(3-(methoxymethyl)-4-methylpiperazin-1-yl)-7,10-dimethyl-5-oxo-1,3,4,5-tetrahydro-2H-chromeno[3,4-c]pyridine-3-carbonyl)-N-(pyrrolidin-1-ylsulfonyl)-2-(2,2,2-trifluoroethoxy)benzamide]"
1 to 10 nM,1 to 10 nM,F (<3),"COC[C@H]1CN(c2cc(C)c3c4c(c(=O)oc3c2C)CN(C(=O)c2ccc(C(=O)NS(=O)(=O)N(C)C)c(O[C@@H]3C[C@@H]5C[C@@H]5C3)c2F)CC4)CCN1C [Example 11, 2-(((1R,3r,5S)-bicyclo[3.1.0]hexan-3-yl)oxy)-N-(N,N-dimethylsulfamoyl)-3-fluoro-4-(8-((R)-3-(methoxymethyl)-4-methylpiperazin-1-yl)-7,10-dimethyl-5-oxo-1,3,4,5-tetrahydro-2H-chromeno[3,4-c]pyridine-3-carbonyl)benzamide]"
100 to 1000 nM,10 to 100 nM,F (<3),CCOc1c(C(=O)NS(=O)(=O)N2CC3CCC2C3)ccc(C(=O)N2CCc3c(c(=O)oc4c(C)c(N5CCN(C)[C@@H](COC)C5)ccc34)C2)c1F (some centres unmarked) [Example 230]
10 to 100 nM,1 to 10 nM,H (>9.0 to 30),"COC[C@H]1CN(c2cc(C)c3c4c(c(=O)oc3c2C)CN(C(=O)c2ccc(C(=O)NS(=O)(=O)N3CCCC3)c(N3CCC(F)(F)C3)c2)CC4)CCN1C [Example 92, (R)-2-(3,3-difluoropyrrolidin-1-yl)-4-(8-(3-(methoxymethyl)-4-methylpiperazin-1-yl)-7,10-dimethyl-5-oxo-1,3,4,5-tetrahydro-2H-chromeno[3,4-c]pyridine-3-carbonyl)-N-(pyrrolidin-1-ylsulfonyl)benzamide]"
1000 to 5000 nM,100 to 1000 nM,H (>9.0 to 30),"COC[C@H]1CN(c2ccc3c4c(c(=O)oc3c2C)CN(C(=O)c2cc(N(C)C)c(C(=O)NS(=O)(=O)N3CCC5(CC3)CC5)cc2F)CC4)CCN1C [Example 189, (R)-N-((6-azaspiro[2.5]octan-6-yl)sulfonyl)-2-(dimethylamino)-5-fluoro-4-(8-(3-(methoxymethyl)-4-methylpiperazin-1-yl)-7-methyl-5-oxo-1,3,4,5-tetrahydro-2H-chromeno[3,4-c]pyridine-3-carbonyl)benzamide]"
100 to 1000 nM,10 to 100 nM,H (>9.0 to 30),"COC[C@H]1CN(c2cc(Cl)c3c4c(c(=O)oc3c2C)CN(C(=O)c2cc(N(C)C)c(C(=O)NS(=O)(=O)N3CC[C@H](OC)C3)cc2F)CC4)CCN1C [Example 284, 4-(10-chloro-8-((R)-3-(methoxymethyl)-4-methylpiperazin-1-yl)-7-methyl-5-oxo-1,3,4,5-tetrahydro-2H-chromeno[3,4-c]pyridine-3-carbonyl)-2-(dimethylamino)-5-fluoro-N-(((S)-3-methoxypyrrolidin-1-yl)sulfonyl)benzamide]"
